Measured values reported in PubChem BioAssay AID1963425 (Molecular Pharmacology Branch, DTP, NCI, 2024).

Tested on: 323965-272-R-J2-PDC complex spheroid growth, % test/control
Test: Anticancer human tumor 323965-272-R-J2-PDC patient-derived pancreatic carcinoma cell line growth inhibition [Asc]
Conditions: for IC50: curve of first compound; for viability, T/C: stronger effect = lower value
Summary of the method: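 Spheroid model: tumor line + HUVEC + hMSC. Single agents and combinations; top conc. at/near clinical Cmax (10 microM if undetermined), half-log dilutions. DMSO stocks at 800-fold test concentration.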

[1] = second compound 0.00949 µM, first compound 0.0316 µM
[2] = second compound 0.00949 µM, first compound 0.1 µM
[3] = second compound 0.00949 µM, first compound 0.316 µM
[4] = second compound 0.00949 µM, first compound 1 µM
[5] = second compound 0.03 µM, first compound 0.0316 µM
[6] = second compound 0.03 µM, first compound 0.1 µM
[7] = second compound 0.03 µM, first compound 0.316 µM
[8] = second compound 0.03 µM, first compound 1 µM
[9] = second compound 0.0949 µM, first compound 0.0316 µM
[10] = second compound 0.0949 µM, first compound 0.1 µM
[11] = second compound 0.0949 µM, first compound 0.316 µM
[12] = second compound 0.0949 µM, first compound 1 µM
[13] = second compound 0.3 µM, first compound 0.0316 µM
[14] = second compound 0.3 µM, first compound 0.1 µM
[15] = second compound 0.3 µM, first compound 0.316 µM
[16] = second compound 0.3 µM, first compound 1 µM
[17] = second compound 0.949 µM, first compound 0.0316 µM
[18] = second compound 0.949 µM, first compound 0.1 µM
[19] = second compound 0.949 µM, first compound 0.316 µM
[20] = second compound 0.949 µM, first compound 1 µM
[21] = second compound 3 µM, first compound 0.0316 µM
[22] = second compound 3 µM, first compound 0.1 µM
[23] = second compound 3 µM, first compound 0.316 µM
[24] = second compound 3 µM, first compound 1 µM
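Also: compound exposure lasted 7 days starting three days after spheroid seeding.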
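For viability, T/C in this document: 100% = DMSO vehicle control wells with viability set relative to vehicle.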

COc1c(OCCCN2CCOCC2)ccc2c3n(c(=NC(=O)c4cnc(N)nc4)nc12)CCN3 + CCN1C(C(=O)NC23CCC(C(=O)O)(CC2)CC3)C(c2cccc(Cl)c2F)C2(C(=O)Nc3cc(Cl)ccc32)C12CCCCC2
IC50 (second compound 0.00949 µM): 151 nM
IC50 (second compound 0.03 µM): 130 nM
IC50 (second compound 0.0949 µM): 130 nM
IC50 (second compound 0.3 µM): 133 nM
IC50 (second compound 0.949 µM): 138 nM
IC50 (second compound 3 µM): 102 nM
viability, T/C (second compound 0.00949 µM, first compound 0.00316 µM): 96%
viability, T/C (second compound 0.00949 µM, first compound 0.01 µM): 97.7%
viability, T/C [1]: 70.7%
viability, T/C [2]: 62.5%
viability, T/C [3]: 34.2%
viability, T/C [4]: 25.7%
viability, T/C (second compound 0.03 µM, first compound 0.00316 µM): 103%
viability, T/C (second compound 0.03 µM, first compound 0.01 µM): 96.4%
viability, T/C [5]: 73.3%
viability, T/C [6]: 52.2%
viability, T/C [7]: 42.2%
viability, T/C [8]: 30.4%
viability, T/C (second compound 0.0949 µM, first compound 0.00316 µM): 97%
viability, T/C (second compound 0.0949 µM, first compound 0.01 µM): 85.6%
viability, T/C [9]: 78.5%
viability, T/C [10]: 50.7%
viability, T/C [11]: 38.4%
viability, T/C [12]: 25.5%
viability, T/C (second compound 0.3 µM, first compound 0.00316 µM): 101%
viability, T/C (second compound 0.3 µM, first compound 0.01 µM): 89.2%
viability, T/C [13]: 69.8%
viability, T/C [14]: 56.3%
viability, T/C [15]: 36.6%
viability, T/C [16]: 27.6%
viability, T/C (second compound 0.949 µM, first compound 0.00316 µM): 99.7%
viability, T/C (second compound 0.949 µM, first compound 0.01 µM): 82.7%
viability, T/C [17]: 70.3%
viability, T/C [18]: 51%
viability, T/C [19]: 42.3%
viability, T/C [20]: 30.1%
viability, T/C (second compound 3 µM, first compound 0.00316 µM): 89.4%
viability, T/C (second compound 3 µM, first compound 0.01 µM): 82.4%
viability, T/C [21]: 63.9%
viability, T/C [22]: 49.6%
viability, T/C [23]: 38.5%
viability, T/C [24]: 26%

C=CC(=O)N1CCN(c2nc(=O)n(-c3c(C)ccnc3C(C)C)c3nc(-c4c(O)cccc4F)c(F)cc23)C(C)C1 (centres undefined) + CCN1C(C(=O)NC23CCC(C(=O)O)(CC2)CC3)C(c2cccc(Cl)c2F)C2(C(=O)Nc3cc(Cl)ccc32)C12CCCCC2
IC50 (second compound 0.00949 µM): > 10000 nM
IC50 (second compound 0.03 µM): > 10000 nM
IC50 (second compound 0.0949 µM): > 10000 nM
IC50 (second compound 0.3 µM): > 10000 nM
IC50 (second compound 0.949 µM): > 10000 nM
IC50 (second compound 3 µM): > 10000 nM
viability, T/C [1]: 82%
viability, T/C [2]: 73.5%
viability, T/C [3]: 60.5%
viability, T/C [4]: 64.8%
viability, T/C (second compound 0.00949 µM, first compound 3.16 µM): 68.7%
viability, T/C (second compound 0.00949 µM, first compound 10 µM): 59.1%
viability, T/C [5]: 75.4%
viability, T/C [6]: 70.1%
viability, T/C [7]: 68.7%
viability, T/C [8]: 68.7%
viability, T/C (second compound 0.03 µM, first compound 3.16 µM): 65.8%
viability, T/C (second compound 0.03 µM, first compound 10 µM): 65.6%
viability, T/C [9]: 80.7%
viability, T/C [10]: 67.2%
viability, T/C [11]: 62.8%
viability, T/C [12]: 73%
viability, T/C (second compound 0.0949 µM, first compound 3.16 µM): 66.2%
viability, T/C (second compound 0.0949 µM, first compound 10 µM): 61.8%
viability, T/C [13]: 75.1%
viability, T/C [14]: 73.2%
viability, T/C [15]: 65.6%
viability, T/C [16]: 60.9%
viability, T/C (second compound 0.3 µM, first compound 3.16 µM): 67.7%
viability, T/C (second compound 0.3 µM, first compound 10 µM): 63.2%
viability, T/C [17]: 84.7%
viability, T/C [18]: 68.3%
viability, T/C [19]: 62.8%
viability, T/C [20]: 69.8%
viability, T/C (second compound 0.949 µM, first compound 3.16 µM): 73.7%
viability, T/C (second compound 0.949 µM, first compound 10 µM): 61.7%
viability, T/C [21]: 79.3%
viability, T/C [22]: 71.5%
viability, T/C [23]: 61%
viability, T/C [24]: 68.1%
viability, T/C (second compound 3 µM, first compound 3.16 µM): 65.8%
viability, T/C (second compound 3 µM, first compound 10 µM): 58.6%
